In brackets after ≈: the same amount, converted by molar mass.
How the values were obtained:
WT L. monocytogenes = assay: Growth curves in BHI with added cyclic dinucleotide, WT bacteria; assay type: cell-based, Listeria monocytogenes; settings: for effect on growth in the absence of vancomycin stress: BHI, dinucleotide 3 μg ml^−1; for effect on growth in the presence of vancomycin: vancomycin 1 μg ml^−1, dinucleotide 3 μg ml^−1
Method: (§1) Overnight cultures were adjusted to 0.03 O.D.600 in 20 ml fresh BHI broth, supplemented when indicated with 0.25 mM IPTG, 0.08 μg ml^−1 penicillin G, 1 μg ml^−1 vancomycin or 3 μg ml^−1 c-di-AMP. For bacterial RNA extraction, bacteria were grown at 37° C. to O.D.600 0.4, then supplemented with 3 μg ml^−1 lincomycin, 50 μM rhodamine 6 G (R6G), 1 μg ml^−1 vancomycin, 0.08 μg ml^−1 penicillin G for 2 h; or centrifuged and resuspended in minimal media pH 5 (lactic acid), minimal media with 10 mM H2O2, or defined minimal media pH 5 with 10 mM H2O2 for 30 mM For microscopy bacteria were grown similarly and supplemented with 1 μg ml^−1 vancomycin for 2 h. Growth curves in the presence of drugs were performed in a Synergy HT BIOTEK® plate reader at 37° C. with continuous shaking following O.D.600 every 15 min for 24 h. Of note, bacterial growth in the plate reader is different than in flasks in respect to the O.D. levels that are measured. In each experiment, growth conditions are indicated.

ΔmdrMTAC mutant = assay: Growth curves in BHI with added cyclic dinucleotide, ΔmdrMTAC mutant; assay type: cell-based, Listeria monocytogenes; settings: for effect on growth in the absence of vancomycin stress: BHI, dinucleotide 3 μg ml^−1; for effect on growth in the presence of vancomycin: vancomycin 1 μg ml^−1, dinucleotide 3 μg ml^−1
Method: as §1

ΔmdrMTAC = assay: Minimal inhibitory concentration for ΔmdrMTAC; assay type: cell-based; settings: Listeria monocytogenes, read-out: minimal inhibitory concentration
WT bacteria [1] = assay: Minimal inhibitory concentration for WT bacteria; assay type: cell-based; settings: Listeria monocytogenes
Method: as §1

[2] = system: dacA gene transcription in WT bacteria; assay: RT-qPCR of dacA transcription upon vancomycin treatment, WT bacteria; assay type: cell-based, Listeria monocytogenes
Method: as §1, with “[…];” for “1 μg ml^−1 vancomycin, 0.08 μg ml^−1 penicillin G for 2 h;”
RNA was purified from bacteria in mid-log growth in BHI or from infected cells using standard phenol-chloroform extraction methods. RNA from intracellularly grown bacteria was amplified using MESSAGEAMP™ II (AMBION™) bacterial RNA amplification kit according to the manufacturer's instructions. RNA of infected macrophages was extracted using TRIZOL® reagent according to standard protocols. […]

WT bacteria [3] = assay: TEM sections, cell wall thickness under vancomycin treatment, WT bacteria; assay type: cell-based, Listeria monocytogenes; settings: vancomycin 1 μg ml^−1 for 2 h
Method: as §1
Bacteria were grown as described above with and without vancomycin treatment. For negative staining, PBS washed bacteria were adsorbed on formvar/carbon coated grids and stained with 2% aqueous uranyl acetate. For TEM sections, a bacterial pellet from 20 ml of culture was fixed in 2.5% glutaraldehyde in PBS at 4° C. for 20 h, washed three times with PBS and post-fixed in 1% OsO4 in PBS at 4° C. for 2 h. […]

SMILES | effect on growth in the absence of vancomycin stress (WT L. monocytogenes) | effect on growth in the presence of vancomycin (WT L. monocytogenes) | effect on growth in the absence of vancomycin stress (ΔmdrMTAC mutant) | effect on growth in the presence of vancomycin (ΔmdrMTAC mutant) | MIC (ΔmdrMTAC) | MIC (WT bacteria [1]) | dacA transcription level in comparison to non-treated bacteria ([2]; sub-lethal vancomycin 1 μg ml^−1) | dacA transcription level in comparison to non-treated bacteria ([2]; vancomycin 20 μg ml^−1 for 10 minutes) | cell wall thickness, average (WT bacteria [3])
Nc1ncnc2c1ncn2[C@@H]1O[C@@H]2COP(=O)(O)O[C@H]3[C@@H](O)[C@H](n4cnc5c(N)ncnc54)O[C@@H]3COP(=O)(O)O[C@H]2[C@H]1O [c-di-AMP, cyclic-di-adenosine monophosphate] | no effect | shorter lag phase | no effect | shorter lag phase |  |  |  |  | 
Nc1nc2c(ncn2[C@@H]2O[C@@H]3COP(=O)(O)O[C@H]4[C@@H](O)[C@H](n5cnc6c(=O)[nH]c(N)nc65)O[C@@H]4COP(=O)(O)O[C@H]3[C@H]2O)c(=O)[nH]1 [c-di-GMP] | no effect | no effect | no effect | no effect |  |  |  |  | 
CC1(C)S[C@@H]2[C@H](NC(=O)Cc3ccccc3)C(=O)N2[C@H]1C(=O)O [penicillin, penicillin G] |  |  |  |  | 0.08 µg/mL (≈ 0.239 µM) | 0.15 µg/mL |  |  | 
CN[C@H](CC(C)C)C(=O)N[C@H]1C(=O)N[C@@H](CC(N)=O)C(=O)N[C@H]2C(=O)N[C@H]3C(=O)N[C@H](C(=O)N[C@H](C(=O)O)c4cc(O)cc(O)c4-c4cc3ccc4O)[C@H](O)c3ccc(c(Cl)c3)Oc3cc2cc(c3O[C@@H]2O[C@H](CO)[C@@H](O)[C@H](O)[C@H]2O[C@H]2C[C@](C)(N)[C@H](O)[C@H](C)O2)Oc2ccc(cc2Cl)[C@H]1O [vancomycin] |  |  |  |  | 1.5 µg/mL (≈ 1.04 µM) | 2 µg/mL | 1.5 fold | 4.5 fold | 35 nm

Source: patent publication US9976149B2, “Modified listeria bacteria and uses thereof” (priority 2014, dated 2018)
